According to ChEMBL document CHEMBL4196239, “Bromopyrrole Alkaloid Inhibitors of the Proteasome Isolated from a Dictyonella sp. Marine Sponge Collected at the Amazon River Mouth” (J Nat Prod, 2018):

Experiment: Inhibition of yeast chymotrypsin-like 20S proteasome using suc-LLVY-AMC as substrate pretreated for 1 hr followed by substrate addition measured every 2 mins for 1 hr by fluorescence assay
Set-up: species or system Saccharomyces cerevisiae

With `N=C(N)Nc1c2n(c(=O)c3[nH]c(Br)cc13)CCC2` the IC50 was over 100 µM.
`NC1=N[C@@]23CCCN2C(=O)c2[nH]cc(Br)c2[C@H]3N1` gave an IC50 of 69 µM.
`N=C(N)Nc1c2n(c(=O)c3[nH]cc(Br)c13)CCC2` gave an IC50 of over 100 µM.
`Nc1nc(/C=C/CNC(=O)c2cc(Br)c[nH]2)c[nH]1` showed an IC50 of 23 µM.
`Nc1ncc(/C=C/CNC(=O)c2ccc(Br)[nH]2)[nH]1` gave an IC50 of 27 µM.
`N=C1N[C@@H](O)[C@@]2(N1)[C@@H](Cl)[C@H](CN)[C@H]1CN3C(=O)c4ccc(Br)n4[C@@H]4NC(=N)N[C@@]43[C@@H]12` gave an IC50 of 9.2 µM.
